Source: patent publication US9695155B2, “Herbicidal substituted pyrimidinyloxy benzene compounds” (E. I. DU PONT DE NEMOURS AND COMPANY, priority 2013, dated 2017)

Columns and labels:
[1] = system: large (Lg) crabgrass; experiment: Test C postemergence; assay type: in vivo, Digitaria sanguinalis; settings: for Plant response rating (0 to 100), Crabgrass, Large: 16 g ai/ha, 0 is no effect, 100 is complete control; for Crabgrass, Large plant response rating: 31 g ai/ha, 13 to 15 days; for Crabgrass, Large plant response rating / Plant response rating, Crabgrass, Large: scale 0 to 100 (0 no effect, 100 complete control)
How it was run: (§1)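 Visual injury score versus untreated controls, 0 = no effect, 100 = complete control, taken 13 to 15 days after treatment in the greenhouse. Pre-emergence pots held loam/sand; post-emergence plants grew in sphagnum peat/vermiculite mix and were sprayed at the 1- to 4-leaf stage.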

[2] = system: morningglory; experiment: Test A postemergence; assay type: in vivo, Ipomoea spp.; settings: 0 to 100 scale where 0 is no effect and 100 is complete control; for Morningglory plant response rating: 125 g ai/ha; for Plant response rating, Morningglory: 500 g ai/ha
How it was run: (§2)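 Scoring: eye-based comparison with untreated controls, 0 for no effect through 100 for complete control, at about day 10. Treatments: directed soil spray preemergence; foliar spray postemergence on 2–10 cm plants at the one- to two-leaf stage. Medium: loam soil with sand.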

[3] = system: corn; experiment: Test C postemergence; assay type: in vivo, Zea mays; settings: for Plant response rating (0 to 100), Corn: 16 g ai/ha, 0 is no effect, 100 is complete control; for Corn plant response rating: 31 g ai/ha, 13 to 15 days; for Corn plant response rating / Plant response rating, Corn: scale 0 to 100 (0 no effect, 100 complete control)
How it was run: as §1

[4] = system: Italian ryegrass; experiment: Test C postemergence; assay type: in vivo, Lolium multiflorum; settings: for Plant response rating (0 to 100), Ryegrass, Italian: 16 g ai/ha, 0 is no effect, 100 is complete control; for Ryegrass, Italian plant response rating: 31 g ai/ha, 13 to 15 days; for Ryegrass, Italian plant response rating / Plant response rating, Ryegrass, Italian: scale 0 to 100 (0 no effect, 100 complete control)
How it was run: as §1

[5] = system: wild oat; experiment: Test C postemergence; assay type: in vivo, Avena fatua; settings: for Plant response rating (0 to 100), Oat, Wild: 16 g ai/ha, 0 is no effect, 100 is complete control; for Oat, Wild plant response rating: 31 g ai/ha, 13 to 15 days; for Oat, Wild plant response rating / Plant response rating, Oat, Wild: scale 0 to 100 (0 no effect, 100 complete control)
How it was run: as §1

[6] = system: chickweed; experiment: Test C postemergence; assay type: in vivo, Stellaria media; settings: for Plant response rating (0 to 100), Chickweed: 16 g ai/ha, 0 is no effect, 100 is complete control; for Chickweed plant response rating: 31 g ai/ha, 13 to 15 days; for Chickweed plant response rating / Plant response rating, Chickweed: scale 0 to 100 (0 no effect, 100 complete control)
How it was run: as §1

[7] = system: velvetleaf; experiment: Test A preemergence; assay type: in vivo, Abutilon theophrasti; settings: for Velvetleaf plant response rating (0 to 100 scale): 125 g ai/ha; for Velvetleaf plant response rating: 500 g ai/ha, 0 to 100 scale where 0 is no effect and 100 is complete control
How it was run: as §2

[8] = system: johnsongrass; experiment: Test C postemergence; assay type: in vivo, Sorghum halepense; settings: for Plant response rating (0 to 100), Johnsongrass: 16 g ai/ha, 0 is no effect, 100 is complete control; for Johnsongrass plant response rating: 31 g ai/ha, 13 to 15 days; for Johnsongrass plant response rating / Plant response rating, Johnsongrass: scale 0 to 100 (0 no effect, 100 complete control)
How it was run: as §1

[9] = system: blackgrass; experiment: Test C postemergence; assay type: in vivo, Alopecurus myosuroides; settings: for Plant response rating (0 to 100), Blackgrass: 16 g ai/ha, 0 is no effect, 100 is complete control; for Blackgrass plant response rating: 31 g ai/ha, 13 to 15 days; for Blackgrass plant response rating / Plant response rating, Blackgrass: scale 0 to 100 (0 no effect, 100 complete control)
How it was run: as §1

[10] = system: large (Lg) crabgrass; experiment: Test A preemergence; assay type: in vivo, Digitaria sanguinalis; settings: for Crabgrass, Large plant response rating: 500 g ai/ha
How it was run: as §2

[11] = system: yellow nutsedge; experiment: Test C postemergence; assay type: in vivo, Cyperus esculentus; settings: for Plant response rating (0 to 100), Nutsedge, Yellow: 16 g ai/ha, 0 is no effect, 100 is complete control; for Nutsedge, Yellow plant response rating: 31 g ai/ha, 13 to 15 days; for Nutsedge, Yellow plant response rating / Plant response rating, Nutsedge, Yellow: scale 0 to 100 (0 no effect, 100 complete control)
How it was run: as §1

[12] = system: waterhemp; experiment: Test C postemergence; assay type: in vivo, Amaranthus rudis; settings: for Plant response rating (0 to 100), Waterhemp: 16 g ai/ha, 0 is no effect, 100 is complete control; for Waterhemp plant response rating: 31 g ai/ha, 13 to 15 days; for Waterhemp plant response rating / Plant response rating, Waterhemp: scale 0 to 100 (0 no effect, 100 complete control)
How it was run: as §1

[13] = system: morningglory; experiment: Test A preemergence; assay type: in vivo, Ipomoea spp.; settings: for Morningglory plant response rating (0 to 100 scale): 125 g ai/ha; for Morningglory plant response rating: 500 g ai/ha, 0 to 100 scale where 0 is no effect and 100 is complete control
How it was run: as §2

[14] = system: giant foxtail; experiment: Test C postemergence; assay type: in vivo, Setaria faberii; settings: for Plant response rating (0 to 100), Foxtail, Giant: 16 g ai/ha, 0 is no effect, 100 is complete control; for Foxtail, Giant plant response rating: 31 g ai/ha, 13 to 15 days; for Foxtail, Giant plant response rating / Plant response rating, Foxtail, Giant: scale 0 to 100 (0 no effect, 100 complete control)
How it was run: as §1

[15] = system: giant foxtail; experiment: Test A preemergence; assay type: in vivo, Setaria faberii; settings: for Foxtail, Giant plant response rating: 500 g ai/ha
How it was run: as §2

[16] = 125 g ai/ha, postemergence, visual rating
[17] = 125 g ai/ha, 0 to 100 scale where 0 is no effect and 100 is complete control
[18] = 0 to 100 scale where 0 is no effect and 100 is complete control

Structure (SMILES): Fc1cccc(Oc2ncc(Cl)cn2)c1-n1cc(Cl)cn1 [Compound 177]
- Plant response rating (0 to 100), Crabgrass, Large ([1]; postemergence): 5
- Crabgrass, Large plant response rating ([1]; postemergence, visual rating): 5
- Plant response rating, Crabgrass, Large [1, 16]: 10
- Plant response rating, Crabgrass, Large ([1]; Postemergence, 62 g ai/ha): 10
- Morningglory plant response rating [2]: 90
- Plant response rating, Morningglory [2]: 100
- Plant response rating (0 to 100), Corn ([3]; postemergence): 5
- Corn plant response rating ([3]; postemergence, visual rating): 5
- Plant response rating, Corn [3, 16]: 10
- Plant response rating, Corn ([3]; Postemergence, 62 g ai/ha): 10
- Plant response rating (0 to 100), Ryegrass, Italian ([4]; postemergence): 0
- Ryegrass, Italian plant response rating ([4]; postemergence, visual rating): 0
- Plant response rating, Ryegrass, Italian [4, 16]: 0
- Plant response rating, Ryegrass, Italian ([4]; Postemergence, 62 g ai/ha): 0
- Plant response rating (0 to 100), Oat, Wild ([5]; postemergence): 5
- Oat, Wild plant response rating ([5]; postemergence, visual rating): 0
- Plant response rating, Oat, Wild [5, 16]: 30
- Plant response rating, Oat, Wild ([5]; Postemergence, 62 g ai/ha): 10
- Plant response rating (0 to 100), Chickweed ([6]; postemergence): 50
- Chickweed plant response rating ([6]; postemergence, visual rating): 50
- Plant response rating, Chickweed [6, 16]: 85
- Plant response rating, Chickweed ([6]; Postemergence, 62 g ai/ha): 55
- Velvetleaf plant response rating (0 to 100 scale) [7]: 80
- Velvetleaf plant response rating [7]: 100
- Plant response rating (0 to 100), Johnsongrass ([8]; postemergence): 5
- Johnsongrass plant response rating ([8]; postemergence, visual rating): 5
- Plant response rating, Johnsongrass [8, 16]: 10
- Plant response rating, Johnsongrass ([8]; Postemergence, 62 g ai/ha): 5
- Plant response rating (0 to 100), Blackgrass ([9]; postemergence): 0
- Blackgrass plant response rating ([9]; postemergence, visual rating): 5
- Plant response rating, Blackgrass [9, 16]: 35
- Plant response rating, Blackgrass ([9]; Postemergence, 62 g ai/ha): 5
- Plant response rating, Crabgrass, Large [10, 17]: 100
- Crabgrass, Large plant response rating [10, 18]: 100
- Plant response rating (0 to 100), Nutsedge, Yellow ([11]; postemergence): 0
- Nutsedge, Yellow plant response rating ([11]; postemergence, visual rating): 5
- Plant response rating, Nutsedge, Yellow [11, 16]: 10
- Plant response rating, Nutsedge, Yellow ([11]; Postemergence, 62 g ai/ha): 5
- Plant response rating (0 to 100), Waterhemp ([12]; postemergence): 70
- Waterhemp plant response rating ([12]; postemergence, visual rating): 75
- Plant response rating, Waterhemp [12, 16]: 100
- Plant response rating, Waterhemp ([12]; Postemergence, 62 g ai/ha): 95
- Morningglory plant response rating (0 to 100 scale) [13]: 20
- Morningglory plant response rating [13]: 80
- Plant response rating (0 to 100), Foxtail, Giant ([14]; postemergence): 5
- Foxtail, Giant plant response rating ([14]; postemergence, visual rating): 10
- Plant response rating, Foxtail, Giant [14, 16]: 20
- Plant response rating, Foxtail, Giant ([14]; Postemergence, 62 g ai/ha): 10
- Plant response rating, Foxtail, Giant [15, 17]: 100
- Foxtail, Giant plant response rating [15, 18]: 100

Structure (SMILES): Cc1cnc(Oc2cccc(C#N)c2-n2cc(C(F)(F)F)cn2)nc1 [Compound 180]
- Plant response rating (0 to 100), Crabgrass, Large ([1]; postemergence): 5
- Crabgrass, Large plant response rating ([1]; postemergence, visual rating): 5
- Plant response rating, Crabgrass, Large [1, 16]: 35
- Plant response rating, Crabgrass, Large ([1]; Postemergence, 62 g ai/ha): 5
- Morningglory plant response rating [2]: 100
- Plant response rating, Morningglory [2]: 100
- Plant response rating (0 to 100), Corn ([3]; postemergence): 0
- Corn plant response rating ([3]; postemergence, visual rating): 5
- Plant response rating, Corn [3, 16]: 10
- Plant response rating, Corn ([3]; Postemergence, 62 g ai/ha): 5
- Plant response rating (0 to 100), Ryegrass, Italian ([4]; postemergence): 0
- Ryegrass, Italian plant response rating ([4]; postemergence, visual rating): 0
- Plant response rating, Ryegrass, Italian [4, 16]: 10
- Plant response rating, Ryegrass, Italian ([4]; Postemergence, 62 g ai/ha): 5
- Plant response rating (0 to 100), Oat, Wild ([5]; postemergence): 5
- Oat, Wild plant response rating ([5]; postemergence, visual rating): 10
- Plant response rating, Oat, Wild [5, 16]: 30
- Plant response rating, Oat, Wild ([5]; Postemergence, 62 g ai/ha): 20
- Plant response rating (0 to 100), Chickweed ([6]; postemergence): 50
- Chickweed plant response rating ([6]; postemergence, visual rating): 60
- Plant response rating, Chickweed [6, 16]: 80
- Plant response rating, Chickweed ([6]; Postemergence, 62 g ai/ha): 70
- Velvetleaf plant response rating (0 to 100 scale) [7]: 100
- Velvetleaf plant response rating [7]: 100
- Plant response rating (0 to 100), Johnsongrass ([8]; postemergence): 0
- Johnsongrass plant response rating ([8]; postemergence, visual rating): 0
- Plant response rating, Johnsongrass [8, 16]: 5
- Plant response rating, Johnsongrass ([8]; Postemergence, 62 g ai/ha): 0
- Plant response rating (0 to 100), Blackgrass ([9]; postemergence): 0
- Blackgrass plant response rating ([9]; postemergence, visual rating): 10
- Plant response rating, Blackgrass [9, 16]: 30
- Plant response rating, Blackgrass ([9]; Postemergence, 62 g ai/ha): 5
- Crabgrass, Large plant response rating (0 to 100 scale) ([10]; 125 g ai/ha): 100
- Crabgrass, Large plant response rating [10, 18]: 100
- Plant response rating (0 to 100), Nutsedge, Yellow ([11]; postemergence): 0
- Nutsedge, Yellow plant response rating ([11]; postemergence, visual rating): 0
- Plant response rating, Nutsedge, Yellow [11, 16]: 10
- Plant response rating, Nutsedge, Yellow ([11]; Postemergence, 62 g ai/ha): 10
- Plant response rating (0 to 100), Waterhemp ([12]; postemergence): 25
- Waterhemp plant response rating ([12]; postemergence, visual rating): 60
- Plant response rating, Waterhemp [12, 16]: 75
- Plant response rating, Waterhemp ([12]; Postemergence, 62 g ai/ha): 70
- Morningglory plant response rating (0 to 100 scale) [13]: 90
- Morningglory plant response rating [13]: 100
- Plant response rating (0 to 100), Foxtail, Giant ([14]; postemergence): 5
- Foxtail, Giant plant response rating ([14]; postemergence, visual rating): 5
- Plant response rating, Foxtail, Giant [14, 16]: 80
- Plant response rating, Foxtail, Giant ([14]; Postemergence, 62 g ai/ha): 10
- Foxtail, Giant plant response rating (0 to 100 scale) ([15]; 125 g ai/ha): 100
- Foxtail, Giant plant response rating [15, 18]: 100
